Like-named read-outs stand apart in the source and are kept apart here.
Experiments:
C3H10T1/2 cells [1] = experiment: Detection of alkaline phosphatase by histochemistry (differentiation of C3H10T1/2 cells); assay type: cell-based; settings: 10 μM, 6 days; intensities compound 4>compound 1>compound 8>compound 6; no DMSO-treated cell labeled
Method: (§1) The effect of the compounds of general formula (I) in accordance with the invention on the stimulation of osteogenesis was determined in vitro by analyzing the differentiation of the C3H10T1/2 pluripotent mesenchymal cell line.
(§2) The test compounds of formula (I) were dissolved in dimethyl sulfoxide (DMSO) to a concentration of 2.5 mM, and then stored at a temperature of −20° C. until use.
(§3) The C3H10T1/2 pluripotent fibroblast cell line (ATCC CCL 226) was cultured under the conditions recommended by the ATCC in DMEM culture medium supplemented with 10% of fetal calf serum at a temperature of 37° C. under an atmosphere at 5% CO2. 24 hours after seeding, the cells were stimulated for 6 days in the presence of the compounds of general formula (I) directly diluted in the culture medium. The activation by these compounds causes differentiation of the cell line to the osteoblast lineage and enables the latter to express alkaline phosphatase. Said alkaline phosphatase is then detected by histochemistry or enzymatic assay.
For this experiment, the cells are cultured in 6-well plates containing a glass cover slip treated for 1H with 0.05 mg/ml poly-D-lysine. The C3H10T1/2 cells are seeded at a density of 150 000 cells per well. The compounds were applied at a concentration of 10 μM. the Sigma staining kit (85L-3R) was used according to the protocol described. Briefly, after fixing the cells for 30 seconds with a solution of citrate/acetone (2-3) and then rinsing with double-distilled water, the staining is carried out for 30 min in the presence of a solution of Fast-Violet/Naphthol in the dark. The cover slips are then rinsed thoroughly with double-distilled water and then mounted in aqueous medium before being photographed on a DMRXA2 microscope (Leica Microsystems). The cells expressing alkaline phosphatase are stained red.

C3H10T1/2 cells [2] = experiment: Enzymatic assay of alkaline phosphatase in 96-well plates (differentiation of C3H10T1/2 cells); assay type: cell-based; settings: for EC50 / Emax: Mus musculus
Method: as §1, §2, §3
The C3H10T1/2 cells were seeded onto 96-well plates at a density of 5×10^3 cells per well. The compounds were applied at increasing concentrations ranging from 10 nM to 10 μM. The plates were then incubated for 6 days and the assays were then carried out in quadruplicate according to the methods previously described (Chen et al. 2002; Frank-Kamenetsky et al. 2002).
The cells were washed in cold phosphate buffer (PBS) and then lysed by sonication at 4° C. in 50 μl of solution containing 0.9% of NaCl and 0.2% of Triton X-100. The alkaline phosphatase activity in the resulting lysates was then measured according to the method described by Pepinsky et al. (Pepinsky et al. 1998). After the addition of 100 μl of reaction buffer (200 mM Tris-HCl; pH 10.5; 0.4 M of 2-amino-2-methylpropanol and 8 mM of MgCl2) and of 50 μl of substrate (4 mM of disodium p-nitrophenyl phosphate), the lysates were incubated at 37° C. for 60 min, and then the optical density (OD) was measured at a wavelength of 415 nm. By way of comparison, the activity of the SAG compound, which activates osteogenesis by acting on the Hedgehog pathway, was tested under the same conditions. The GraphPad Prism 4° software was used to plot the curves and to determine the effective concentrations 50 (EC50).

[3] = C3H 10T1/2, 144 h, 6 days of stimulation, 10 nM to 10 μM, OD 415 nm, mean of 2 to 5 independent experiments, read-out: EC50 on the differentiation of C3H10T1/2 cells measured via alkaline phosphatase activity
[4] = C3H 10T1/2, 144 h, 6 days of stimulation, relative to compound 1 in the same experiment, mean of 2 to 5 independent experiments, read-out: Maximum stimulation, % of maximum activation of compound 1
[5] = dose-response curve produced in parallel with compound 1

**Q.** With CCCCCCn1c(=O)c(C(=O)Nc2ccc(C(=O)OCCC)cc2)c(O)c2ccccc21 [Compound 1, propyl 4-(1-hexyl-4-hydroxy-2-oxo-1,2-dihydroquinoline-3-carboxamido)benzoate] as the compound, how does the “Expression of alkaline phosphatase detected by histochemical staining (number of cells labeled)” value (from here on “Expression”) (C3H10T1/2 cells [1]) read?
**A.** increase in the number of cells labeled

**Q.** What about the EC50 (C3H10T1/2 cells [2]; [3]) of the same compound?
**A.** 1.3 µM

**Q.** What about the Emax (C3H10T1/2 cells [2]; [4]) of the same compound?
**A.** 100%

**Q.** Which EC50 (C3H10T1/2 cells [2]; [3]) does the source give for CCOC(=O)c1ccc(NC(=O)c2c(O)c3ccccc3n(Cc3ccccc3)c2=O)cc1 [Compound 2, ethyl 4-(1-benzyl-4-hydroxy-2-oxo-1,2-dihydroquinoline-3-carboxamido)benzoate] here?
**A.** > 3 µM

**Q.** And the Emax (C3H10T1/2 cells [2]; [4])?
**A.** 4%

**Q.** For CCCCCCn1c(=O)c(C(=O)Nc2ccc(C(=O)OCC)cc2)c(O)c2ccccc21 [Compound 3, ethyl 4-(1-hexyl-4-hydroxy-2-oxo-1,2-dihydroquinoline-3-carboxamido)benzoate], which EC50 (C3H10T1/2 cells [2]; [3]) is on record?
**A.** 3.6 µM

**Q.** What about the Emax (C3H10T1/2 cells [2]; [4]) of the same compound?
**A.** 66%

**Q.** CCCCCCn1c(=O)c(C(=O)Nc2ccc(C(=O)O)cc2)c(O)c2ccccc21 [Compound 4, 4-(1-hexyl-4-hydroxy-2-oxo-1,2-dihydroquinoline-3-carboxamido)benzoic acid] was tested. Which “Expression” value (C3H10T1/2 cells [1]) did it give?
**A.** increase in the number of cells labeled

**Q.** And the EC50 (C3H10T1/2 cells [2]; [3])?
**A.** 0.6 µM

**Q.** And the EC50 (C3H10T1/2 cells [2]; C3H 10T1/2, 144 h, 6 days of stimulation, alkaline phosphatase activity, read-out: Affinity (activation of C3H10T1/2 cell differentiation))?
**A.** 0.6 µM

**Q.** What about the Emax (C3H10T1/2 cells [2]; [4]) of the same compound?
**A.** 124%

**Q.** And the Emax (C3H10T1/2 cells [2]; C3H 10T1/2, excess over compound 1, read-out: Maximum stimulation greater than that of compound 1)?
**A.** 20%

**Q.** Which results are given for CCCCCCn1c(=O)c(C(=O)Nc2ccc(C(=O)OCCCC)cc2)c(O)c2ccccc21 [Compound 5, butyl 4-(1-hexyl-4-hydroxy-2-oxo-1,2-dihydroquinoline-3-carboxamido)benzoate]?
**A.** EC50 (C3H10T1/2 cells [2]; [3]): 1.5 µM; Emax (C3H10T1/2 cells [2]; [4]): 91%

**Q.** With CCCCCCn1c(=O)c(C(=O)Nc2ccc(C(=O)OC(C)(C)C)cc2)c(O)c2ccccc21 [Compound 6, tert-butyl 4-(1-hexyl-4-hydroxy-2-oxo-1,2-dihydroquinoline-3-carboxamido)benzoate] as the compound, how does the “Expression” value (C3H10T1/2 cells [1]) read?
**A.** increase in the number of cells labeled

**Q.** And the EC50 (C3H10T1/2 cells [2]; [3])?
**A.** 3.1 µM

**Q.** What about the Emax (C3H10T1/2 cells [2]; [4]) of the same compound?
**A.** 62%

**Q.** CCCCCCn1c(=O)c(C(=O)Nc2ccc(C(=O)OCc3ccccc3)cc2)c(O)c2ccccc21 [Compound 7, benzyl 4-(1-hexyl-4-hydroxy-2-oxo-1,2-dihydroquinoline-3-carboxamido)benzoate] was tested. Which EC50 (C3H10T1/2 cells [2]; [3]) did it give?
**A.** 2 µM

**Q.** And the Emax (C3H10T1/2 cells [2]; [4])?
**A.** 47%

**Q.** Which results are given for CCCCCCn1c(=O)c(C(=O)Nc2ccc(C(=O)NCCCC)cc2)c(O)c2ccccc21 [Compound 8, N-(4-(butylcarbamoyl)phenyl)-1-hexyl-4-hydroxy-2-oxo-1,2-dihydroquinoline-3-carboxamide]?
**A.** Expression of alkaline phosphatase detected by histochemical staining (number of cells labeled) (C3H10T1/2 cells [1]): increase in the number of cells labeled; EC50 (C3H10T1/2 cells [2]; [3]): 5.8 µM; Emax (C3H10T1/2 cells [2]; [4]): 94%

**Q.** With CCCCCCn1c(=O)c(C(=O)Nc2ccc(C(=O)OC(C)C)cc2)c(O)c2ccccc21 [Compound 9, isopropyl 4-(1-hexyl-4-hydroxy-2-oxo-1,2-dihydroquinoline-3-carboxamido)benzoate] as the compound, how does the EC50 (C3H10T1/2 cells [2]; [3]) read?
**A.** 6.5 µM

**Q.** And the Emax (C3H10T1/2 cells [2]; [4])?
**A.** 33%

**Q.** Which results are given for CNC1CCC(N(Cc2cccc(-c3ccncc3)c2)C(=O)c2sc3ccccc3c2Cl)CC1 (centres unmarked) [SAG, reference compound]?
**A.** Affinity compared with compound 1 (FIG. 3) (C3H10T1/2 cells [2]; [5]): similar; Maximum stimulation compared with compound 1 (FIG. 3) (C3H10T1/2 cells [2]; [5]): lower maximum stimulation than compound 1
